In patent publication US20110189669A1, “METHODS OF AIDING IN THE DIAGNOSIS OF PROSTATE CANCER” (IMPERIAL INNOVATIONS LIMITED, priority 2008, published 2011):

Legend:
GNMT = conditions: cited from earlier work
LNCaP cells [1] = assay: LNCaP cell growth (Sulphorhodamine B cell staining / cell numbers); type: cell-based
Description: A) LNCaP cell growth is stimulated by the synthetic androgen R1881 (1 nM), as measured using the Sulphorhodamine B cell staining assay.
LNCaP cells were cultured in the absence or presence of 1 nM R1881 and increasing concentrations of SAH for 6 days at which point cell numbers were measured.
Biological methylation reactions which utilise S-adenosylmethionine (SAM) as a methyl donor encompass several key cellular and metabolic processes and include the methylation of phospholipids, proteins, DNA and RNA. This class of reaction is carried out by methyltransferases that are represented by a diverse group of distantly related proteins (8-10), with domains that catalyse the transfer of the methyl group from SAM to a molecular substrate, together with the in-situ generation of SAH. For most methyltransferases, SAH is known to have a higher affinity than SAM for the catalytic site, thereby acting as a potent feedback inhibitor of methyltransferase activity within the cell. […] In most tissues, the balance between SAM and SAH and the subsequent regulation of global methylation activity resides in the ability to rapidly metabolise SAH through the enzyme S-adenosylhomocysteine hydrolase (SAH hydrolase). […] GNMT is a phylogenetically conserved enzyme (12) that methylates Glycine to produce N-Methyl Glycine (sarcosine), which is known to be largely physiologically inert, and also generates SAH. […]

LNCaP cells [2] = assay: gene expression microarray of androgen-regulated genes in LNCaP cells; type: cell-based
Description: Microarray analysis was carried out on RNAs prepared from three bioreplicate cultures for the no ligand and R1881 treatments.
In order to identify androgen-regulated genes in LNCaP cells, we have performed gene expression microarray profiling using the Applied Biosystems Genome Survey Microarray V2.0. […] These genes include known androgen-responsive genes, including PSA (KLK3), KLK2, DRG-1 and TMPRSS2.
Detailed time course studies were undertaken to determine the time of androgen treatment for optimal expression of androgen-responsive genes (PSA and DRG-1) in the LNCaP cells (FIG. 1A-D). On the basis of these studies, RNA from […] bio-replicate cultures were prepared from LNCaP cells treated with androgen for 24 hours, as well as the no ligand control. The RNAs were subjected to RNA quality assays and validated by real-time RT-PCR for two control genes (GAPDH and RPLPO) and the androgen regulated genes PSA, DRG-1 and GREB-1. […] Three replicates from each treatment set were subsequently used for hybridisation to the Applied Biosystems (ABI) Human Genome Survey Microarray V2.0, which has probes for 29,098 genes, representing the most comprehensive coverage currently available for any human gene expression microarray platform. Raw data were quality assessed and filtered according to the recommendations supplied by the ABI1700 Data Analysis User Guide and the filtered data “vsn normalised” (4). Differential expression was assessed using liner models and empirical Bayes algorithms as described in (5). This analysis has robustly defined 456 probes whose expression was stimulated by androgen by two fold or greater, with positive lod scores (B values) for differential expression.

| SMILES | inhibition of GNMT (literature statement) (GNMT) | LNCaP cell growth (LNCaP cells [1]; R1881 1 nM, Sulphorhodamine B assay) | up-regulation of DRG-1 expression (LNCaP cells [2]; 24 hours androgen treatment) [fold] | up-regulation of KLK2 expression (LNCaP cells [2]; 24 hours androgen treatment) [fold] | up-regulation of PSA (KLK3) expression (LNCaP cells [2]; 24 hours androgen treatment) [fold] | up-regulation of TMPRSS2 expression (LNCaP cells [2]; 24 hours androgen treatment) [fold] | increase in GNMT gene expression (LNCaP cells [2]; within 24 hours of androgen treatment) [fold] | effect on androgen-stimulated growth of LNCaP cells (LNCaP cells [1]; 1 nM R1881 plus increasing concentrations of SAH, 6 days) |
| --- | --- | --- | --- | --- | --- | --- | --- | --- |
| Nc1nc2ncc(CNc3ccc(C(=O)N[C@@H](CCC(=O)O)C(=O)O)cc3)nc2c(=O)[nH]1 [Folic acid] | allosteric inhibitor | – | – | – | – | – | – | – |
| C[C@]1(O)CC[C@H]2[C@@H]3CCC4=CC(=O)CCC4=C3C=C[C@@]21C [R1881] | – | stimulated | 24 | 32 | 30 | 16 | 16 | – |
| Nc1ncnc2c1ncn2[C@@H]1O[C@H](CSCC[C@H](N)C(=O)O)[C@@H](O)[C@H]1O [SAH, S-adenosyl-homocysteine] | relatively insensitive | – | – | – | – | – | – | potentiates the androgen-stimulated growth |
